Experimental findings from ChEMBL document CHEMBL4011581, “Interference with bile salt export pump function is a susceptibility factor for human liver injury in drug development” (Toxicol Sci, 2010) are described below.

For the assay, the target named is Bile salt export pump (Homo sapiens, UniProt O95342). Kind of assay: Inhibition of human BSEP expressed in fall armyworm sf9 cell plasma membrane vesicles assessed as reduction in vesicle-associated [3H]-taurocholate transport preincubated for 10 mins prior to ATP addition measured after 15 mins in presence of [3H]-taurocholate by topcount based membrane vesicle transport assay. The format is ADME.
Regarding `c1ccc2c(c1)OCC(C1=NCCN1)O2` (stereo unspecified) [IDAZOXAN], the IC50 is over 135 µM.
The same measure for `Cc1cc(=O)n(-c2ccccc2)n1C` [ANTIPYRINE]: over 135 µM; for `CCn1cc(C(=O)O)c(=O)c2cc(F)c(N3CCN(C)CC3)cc21` [PEFLOXACIN]: over 135 µM.
Consider `O=C(O)CCNC(=O)c1ccccc1` [BETAMIPRON], for which the IC50 was over 135 µM.
The same measure for `Cc1c(O)cccc1C(=O)N[C@@H](CSc1ccccc1)[C@H](O)CN1C[C@H]2CCCC[C@H]2C[C@H]1C(=O)NC(C)(C)C`: 11.8 µM.
As to `C=CCN1CC[C@]23c4c5ccc(O)c4O[C@H]2C(=O)CC[C@@]3(O)[C@H]1C5` [NALOXONE], the IC50 was over 135 µM.
The value for `COC(=O)C1=C(C)NC(C)=C(C(=O)OCCN(C)Cc2ccccc2)C1c1cccc([N+](=O)[O-])c1` (stereo unspecified) [NICARDIPINE] was 7.9 µM; that for `CCN(CC)CCNC(=O)c1ccc(NC(C)=O)cc1` [ACECAINIDE] was over 135 µM.
The value for `CC(C)(C)NCC(O)COc1cccc2c1CC(O)C(O)C2` (stereo unspecified) [NADOLOL] was over 135 µM.
The same measure for `CC1=NS(=O)(=O)c2cc(Cl)ccc2N1` [DIAZOXIDE]: over 135 µM; for `CN(C)C(=O)CCSC(SCCC(=O)O)c1cccc(/C=C/c2ccc3ccc(Cl)cc3n2)c1` (stereo unspecified) [MK-571]: 3.5 µM.
For `O=C(O)CCCc1ccc(N(CCCl)CCCl)cc1` [CHLORAMBUCIL], the half-maximal inhibitory concentration (IC50) is over 135 µM.
Regarding `S=P(N1CC1)(N1CC1)N1CC1` [THIOTEPA], the concentration for half-maximal inhibition (IC50) was over 135 µM.
The value for `CC(=O)Oc1ccccc1C(=O)O` [ASPIRIN] was over 135 µM; that for `Nc1ccc(S(=O)(=O)Nc2ncccn2)cc1` [SULFADIAZINE] was over 135 µM; that for `Cc1c(OCC(F)(F)F)ccnc1C[S+]([O-])c1nc2ccccc2[nH]1` (stereo unspecified) [LANSOPRAZOLE] was over 135 µM.
The same measure for `C=CC1=C(C(=O)O)N2C(=O)[C@@H](NC(=O)/C(=N\OCC(=O)O)c3csc(N)n3)[C@H]2SC1` [CEFIXIME]: over 135 µM.
The same measure for `NC[C@H]1O[C@H](O[C@H]2[C@H](O)[C@@H](O[C@H]3O[C@H](CO)[C@@H](O)[C@H](N)[C@H]3O)[C@H](N)C[C@@H]2N)[C@H](O)[C@@H](O)[C@@H]1O` [KANAMYCIN]: over 135 µM.
Consider `CN1C(=O)CN=C(c2ccccc2)c2cc(Cl)ccc21` [DIAZEPAM], for which the IC50 is over 135 µM.
For `Cc1ccc(C)c(OCCCC(C)(C)C(=O)O)c1` [GEMFIBROZIL], the half-inhibitory concentration (IC50) is over 135 µM.
Consider `O=c1[nH]cc(F)c(=O)[nH]1` [FLUOROURACIL], for which the half-inhibitory concentration (IC50) is over 135 µM.
The same measure for `CC(C)N(CCC(C(N)=O)(c1ccccc1)c1ccccn1)C(C)C` (stereo unspecified) [DISOPYRAMIDE]: over 135 µM; for `CCOc1ccc(/C=C2\NCCc3cc(OCC)c(OCC)cc32)cc1OCC` [DROTAVERINE]: 37 µM.
Take `CNC1(c2ccccc2Cl)CCCCC1=O` (stereo unspecified) [KETAMINE]: the IC50 was over 135 µM.
The value for `CCC(=O)O[C@H]1[C@H](O[C@@H]2[C@@H](C)[C@H](O[C@H]3C[C@@](C)(OC)[C@@H](O)[C@H](C)O3)[C@@H](C)C(=O)O[C@H](CC)[C@@](C)(O)[C@H](O)[C@@H](C)C(=O)[C@H](C)C[C@@]2(C)O)O[C@H](C)C[C@@H]1N(C)C` [ERYTHROMYCIN ESTOLATE] was 13 µM.
The same measure for `CC1Cc2ccccc2N1NC(=O)c1ccc(Cl)c(S(N)(=O)=O)c1` (stereo unspecified) [INDAPAMIDE]: over 135 µM; for `CC(C)CN(C[C@@H](O)[C@H](Cc1ccccc1)NC(=O)O[C@H]1CCOC1)S(=O)(=O)c1ccc(N)cc1`: 25 to 45 µM.
The same measure for `CCCCNC(=O)NS(=O)(=O)c1ccc(C)cc1` [TOLBUTAMIDE]: over 135 µM.
With `O=C(NC1CCN(CCc2c[nH]c3ccccc23)CC1)c1ccccc1` [INDORAMIN], the IC50 was over 135 µM.
The same measure for `C[C@H]1C[C@@H]2[C@H]([C@@H](O)C[C@@]3(C)[C@H]2CC[C@]3(O)C(=O)CO)[C@@]2(C)C=CC(=O)C=C12` [METHYLPREDNISOLONE]: over 135 µM.
The value for `COc1cc(Cc2cnc(N)nc2N)cc(OC)c1OC` [TRIMETHOPRIM] was over 135 µM; that for `CCc1oc2ccccc2c1C(=O)c1cc(Br)c(O)c(Br)c1` [BENZBROMARONE] was 17.5 µM; that for `COc1ccc2cc([C@H](C)C(=O)O)ccc2c1` [NAPROXEN] was over 135 µM.
The value for `Cc1nccn1CC1CCc2c(c3ccccc3n2C)C1=O` (stereo unspecified) [ONDANSETRON] was over 135 µM; that for `CC(C)(C)NCC(O)c1cc(O)cc(O)c1` (stereo unspecified) [TERBUTALINE] was over 135 µM; that for `COC[C@H]1OC(=O)c2coc3c2[C@@]1(C)C1=C(C3=O)[C@@H]2CCC(=O)[C@@]2(C)C[C@H]1OC(C)=O` [WORTMANNIN] was 13.6 µM.
In the case of `CN(C)C(=O)Oc1cccc([N+](C)(C)C)c1` [NEOSTIGMINE], the half-inhibitory concentration (IC50) is over 135 µM.
`CCCNC(=O)NS(=O)(=O)c1ccc(Cl)cc1` [CHLORPROPAMIDE]: the 50% inhibitory concentration (IC50) is over 135 µM.
The value for `CN(C)CCCN1c2ccccc2Sc2ccc(Cl)cc21` [CHLORPROMAZINE] was over 135 µM; that for `CN(CCOc1ccc(CC2SC(=O)NC2=O)cc1)c1ccccn1` (stereo unspecified) [ROSIGLITAZONE] was 4.4 µM.
The same measure for `COc1ccc2cc1Oc1cc3c(cc1OC)CC[N+](C)(C)[C@H]3Cc1ccc(cc1)Oc1c(OC)c(OC)cc3c1[C@@H](C2)[N+](C)(C)CC3` [METOCURINE]: over 135 µM; for `COc1ccc(Cl)cc1[C@]1(F)C(=O)Nc2cc(C(F)(F)F)ccc21` [FLINDOKALNER]: over 135 µM; for `CC(C)Cc1ccc(C(C)C(=O)O)cc1` (stereo unspecified) [IBUPROFEN]: over 135 µM.
The value for `NC(N)=Nc1nc(CSCCC(N)=NS(N)(=O)=O)cs1` [FAMOTIDINE] was over 135 µM; that for `COc1cc2c3cc1Oc1cc(ccc1O)C[C@@H]1c4c(cc(OC)c(O)c4Oc4ccc(cc4)C[C@@H]3N(C)CC2)CC[N+]1(C)C` [TUBOCURARINE] was over 135 µM.
For `CCOC(=O)C1=C(C)NC(C)=C(C(=O)OC)C1c1cccc([N+](=O)[O-])c1` (stereo unspecified) [NITRENDIPINE], the half-maximal inhibitory concentration (IC50) lay in the range of 25 to 45 µM.
As to `COc1ccc2c3c1O[C@H]1C[C@@H](O)C=C[C@@]31CCN(C)C2` [GALANTAMINE], the IC50 is over 135 µM.
The value for `Cc1c(C)c2c(c(C)c1O)CCC(C)(COc1ccc(CC3SC(=O)NC3=O)cc1)O2` (stereo unspecified) [TROGLITAZONE] was 5.9 µM.
For `CN1C(C(=O)Nc2ccccn2)=C(O)c2sccc2S1(=O)=O` [TENOXICAM], the IC50 was over 135 µM.
The same measure for `NC[C@@H]1O[C@H](O[C@H]2[C@@H](O)[C@H](O[C@@H]3[C@@H](O)[C@H](N)C[C@H](N)[C@H]3O[C@H]3O[C@H](CN)[C@@H](O)[C@H](O)[C@H]3N)O[C@@H]2CO)[C@H](N)[C@@H](O)[C@@H]1O` [FRAMYCETIN]: over 135 µM.
The same measure for `NCC[C@H](O)C(=O)N[C@@H]1C[C@H](N)[C@@H](O[C@H]2O[C@H](CN)[C@@H](O)[C@H](O)[C@H]2O)[C@H](O)[C@H]1O[C@H]1O[C@H](CO)[C@@H](O)[C@H](N)[C@H]1O` [AMIKACIN]: over 135 µM; for `CN1CCOC(c2ccccc2)c2ccccc2C1` (stereo unspecified) [NEFOPAM]: over 135 µM; for `Cc1cc(NS(=O)(=O)c2ccc(N)cc2)no1` [SULFAMETHOXAZOLE]: over 135 µM.
For the compound `COCC(=O)O[C@]1(CCN(C)CCCc2nc3ccccc3[nH]2)CCc2cc(F)ccc2[C@@H]1C(C)C` [MIBEFRADIL], the 50% inhibitory concentration (IC50) lay in the range of 25 to 45 µM.
On to `CCCCc1ncc(/C=C(\Cc2cccs2)C(=O)O)n1Cc1ccc(C(=O)O)cc1` [EPROSARTAN], for which the concentration for half-maximal inhibition (IC50) was over 135 µM.
The same measure for `Nc1c2c(nc3ccccc13)CCCC2` [TACRINE]: over 135 µM; for `CC(C)(C)NC[C@H](O)COc1nsnc1N1CCOCC1` [TIMOLOL]: over 135 µM; for `CN[C@@H]1C[C@H]2O[C@@](C)([C@@H]1OC)n1c3ccccc3c3c4c(c5c6ccccc6n2c5c31)C(=O)NC4` [STAUROSPORINE]: 18.7 µM.
The value for `Cc1ccc(C(=O)c2cc(O)c(O)c([N+](=O)[O-])c2)cc1` [TOLCAPONE] was 34.5 µM; that for `COc1cc(NC(C)CCCN)c2ncccc2c1` (stereo unspecified) [PRIMAQUINE] was 32.7 µM; that for `COc1ccc(Cc2nccc3cc(OC)c(OC)cc23)cc1OC` [PAPAVERINE] was over 135 µM.
The value for `CC(C)NCC(O)c1ccc(NS(C)(=O)=O)cc1` (stereo unspecified) [SOTALOL] was over 135 µM; that for `C=C[C@H]1C[N@@]2CC[C@H]1C[C@H]2[C@H](O)c1ccnc2ccc(OC)cc12` [QUININE] was over 135 µM; that for `CCN(CC)CCNC(=O)c1cc(Cl)c(N)cc1OC` [METOCLOPRAMIDE] was over 135 µM.
On to `CC[C@]1(O)C[C@@H]2CN(CCc3c([nH]c4ccccc34)[C@@](C(=O)OC)(c3cc4c(cc3OC)N(C)[C@H]3[C@@](O)(C(=O)OC)[C@H](OC(C)=O)[C@]5(CC)C=CCN6CC[C@]43[C@@H]65)C2)C1` [VINBLASTINE], for which the IC50 is over 135 µM.
The value for `C(=C\c1ccccc1)/CN1CCN(C(c2ccccc2)c2ccccc2)CC1` [CINNARIZINE] was 15.7 µM; that for `NS(=O)(=O)Cc1noc2ccccc12` [ZONISAMIDE] was over 135 µM.
The value for `COc1ccccc1N1CCN(CCCNc2cc(=O)n(C)c(=O)n2C)CC1` was over 135 µM; that for `C=CCc1ccccc1OCC(O)CNC(C)C` (stereo unspecified) [ALPRENOLOL] was over 135 µM; that for `COC(=O)[C@H]1[C@H]2C[C@@H]3c4[nH]c5cc(OC)ccc5c4CCN3C[C@H]2C[C@@H](OC(=O)c2cc(OC)c(OC)c(OC)c2)[C@@H]1OC` [RESERPINE] was 8.4 µM.
The same measure for `ClC(Cl)(Cl)Cl` [CARBON TETRACHLORIDE]: over 135 µM.
On to `Nc1nc(O)c2ncn(COC(CO)CO)c2n1` [GANCICLOVIR], for which the IC50 is over 135 µM.
On to `O=P(O)(O)C(O)(Cn1ccnc1)P(=O)(O)O` [ZOLEDRONIC ACID], for which the 50% inhibitory concentration (IC50) was over 135 µM.
Consider `CCCCCC[C@H]1C(=O)O[C@H](C)[C@H](NC(=O)c2cccc(NC=O)c2O)C(=O)O[C@@H](C)[C@@H]1OC(=O)CC(C)C` [ANTIMYCIN A], for which the IC50 lay in the range of 45 to 60 µM.
On to `CC(C)(Oc1ccc(C2CC2(Cl)Cl)cc1)C(=O)O` (stereo unspecified) [CIPROFIBRATE], for which the IC50 is over 135 µM.
The value for `CNCCCN1c2ccccc2CCc2ccccc21` [DESIPRAMINE] was over 135 µM.

By IC50 is commonly meant the concentration at which inhibition is half-maximal.
